Data reported in ChEMBL document CHEMBL1157187, “Chemical synthesis of 2beta-amino-5alpha-androstane-3alpha,17beta-diol N-derivatives and their antiproliferative effect on HL-60 human leukemia cells” (Bioorg Med Chem, 2008).

Experiments:
HL-60 [1] = assay: Growth inhibition of human HL60 cells at 10 uM after 3 days; type: functional; conditions: HL-60, 72 h
HL-60 [2] = assay: Growth inhibition of human HL60 cells at 1 uM after 3 days; type: functional; conditions: HL-60, 72 h
HL-60 [3] = assay: Increase in CD11b expression in human HL60 cells; type: functional
HL-60 [4] = assay: Increase in CD11b/CD14 double expression in human HL60 cells; type: functional
HL-60 [5] = assay: Growth inhibition of human HL60 cells after 3 days; type: functional, cell-based; conditions: HL-60, 72 h

| Compound | inhibition at 10 µM (HL-60 [1]) [%] | inhibition at 1 µM (HL-60 [2]) [%] | Activity (HL-60 [3]) [%] | Activity (HL-60 [4]) [%] | IC50 (HL-60 [5]) [µM] |
| --- | --- | --- | --- | --- | --- |
| CCN1CCN([C@H]2C[C@@]3(C)[C@@H](CC[C@@H]4[C@@H]3CC[C@]3(C)[C@@H](O)CC[C@@H]43)C[C@@H]2O)CC1 | 4.8 | 0 | – | – | – |
| C[C@]12C[C@H](N3CCN(CCO)CC3)[C@@H](O)C[C@@H]1CC[C@@H]1[C@@H]2CC[C@]2(C)[C@@H](O)CC[C@@H]12 | 17.7 | 0.8 | – | – | – |
| CCCCCCCCCN1CCN([C@H]2C[C@@]3(C)[C@@H](CC[C@@H]4[C@@H]3CC[C@]3(C)[C@@H](O)CC[C@@H]43)C[C@@H]2O)CC1 | 99.8 | 9.1 | 55 | 32 | 4.2 |
| C[C@]12C[C@H](N3CCN(c4ccccc4)CC3)[C@@H](O)C[C@@H]1CC[C@@H]1[C@@H]2CC[C@]2(C)[C@@H](O)CC[C@@H]12 | 36.6 | 7 | – | – | – |
| C[C@]12C[C@H](N3CCCCC3)[C@@H](O)C[C@@H]1CC[C@@H]1[C@@H]2CC[C@]2(C)[C@@H](O)CC[C@@H]12 | 1.5 | 0 | – | – | – |
| C[C@]12C[C@H](N3CCCC3)[C@@H](O)C[C@@H]1CC[C@@H]1[C@@H]2CC[C@]2(C)[C@@H](O)CC[C@@H]12 | 9.9 | 0 | – | – | – |
| C[C@]12C[C@H](N3CCOCC3)[C@@H](O)C[C@@H]1CC[C@@H]1[C@@H]2CC[C@]2(C)[C@@H](O)CC[C@@H]12 | 8.7 | 14.9 | – | – | – |
| C[C@]12C[C@H](n3cccn3)[C@@H](O)C[C@@H]1CC[C@@H]1[C@@H]2CC[C@]2(C)[C@@H](O)CC[C@@H]12 | 12.8 | 8.4 | – | – | – |
| C[C@]12C[C@H](N3CCC(Cc4ccccc4)CC3)[C@@H](O)C[C@@H]1CC[C@@H]1[C@@H]2CC[C@]2(C)[C@@H](O)CC[C@@H]12 | 57.9 | 9.9 | – | – | – |
| C[C@]12C[C@H](C3NCCc4ccccc43)[C@@H](O)C[C@@H]1CC[C@@H]1[C@@H]2CC[C@]2(C)[C@@H](O)CC[C@@H]12 (stereo partly drawn) | 29.6 | 3.4 | – | – | – |
| CCCCCCCCN[C@H]1C[C@@]2(C)[C@@H](CC[C@@H]3[C@@H]2CC[C@]2(C)[C@@H](O)CC[C@@H]32)C[C@@H]1O | 99.2 | 0 | 29 | 10 | 6.4 |
| C[C@]12C[C@H](N3CCCCCC3)[C@@H](O)C[C@@H]1CC[C@@H]1[C@@H]2CC[C@]2(C)[C@@H](O)CC[C@@H]12 | 3.4 | 0 | – | – | – |
| C[C@]12C[C@H](N3CCN(Cc4ccc5c(c4)OCO5)CC3)[C@@H](O)C[C@@H]1CC[C@@H]1[C@@H]2CC[C@]2(C)[C@@H](O)CC[C@@H]12 | 26.1 | 0 | – | – | – |
| C[C@]12C[C@H](NCCC(c3ccccc3)c3ccccc3)[C@@H](O)C[C@@H]1CC[C@@H]1[C@@H]2CC[C@]2(C)[C@@H](O)CC[C@@H]12 | 95.2 | 12.9 | 58 | 39 | 3.1 |
| C[C@]12C[C@H](N3CCCNCC3)[C@@H](O)C[C@@H]1CC[C@@H]1[C@@H]2CC[C@]2(C)[C@@H](O)CC[C@@H]12 | 21.4 | 1 | – | – | – |
| C[C@]12C[C@H](N3CCN(c4ccc([N+](=O)[O-])cc4)CC3)[C@@H](O)C[C@@H]1CC[C@@H]1[C@@H]2CC[C@]2(C)[C@@H](O)CC[C@@H]12 | 92.2 | 12.5 | – | – | – |
| C[C@]12C[C@H](N3CCN(c4ccccn4)CC3)[C@@H](O)C[C@@H]1CC[C@@H]1[C@@H]2CC[C@]2(C)[C@@H](O)CC[C@@H]12 | 26.1 | 0 | – | – | – |
| C[C@]12C[C@H](N3CCN(c4ccc(F)cc4)CC3)[C@@H](O)C[C@@H]1CC[C@@H]1[C@@H]2CC[C@]2(C)[C@@H](O)CC[C@@H]12 | 10.1 | 0 | – | – | – |
| COc1cccc2c1C(=O)c1c(O)c3c(c(O)c1C2=O)C[C@@](O)(C(=O)CO)C[C@@H]3O[C@H]1C[C@H](N)[C@H](O)[C@H](C)O1 [DOXORUBICIN] | 94.6 | 91.8 | – | – | 0.1 |
